Test results from patent US8648058B2, “Diazeniumdiolate cyclopentyl derivatives” (Merck Sharp & Dohme Corp., priority 2010, dated 2014).

Tested on: Male beagle dogs
Test: canine telemetry protocol for blood pressure reduction efficacy
Assay type: in vivo
Conditions: 3 mg/kg dose, oral gavage, telemetered male beagle dogs; for ΔPP (mm Hg) 1-6 h / ΔPP (mm Hg) 6-12 h / ΔPP (mm Hg) 12-18 h: change from baseline in pulse pressure; for ΔSBP (mm Hg) 1-6 h / ΔSBP (mm Hg) 6-12 h / ΔSBP (mm Hg) 12-18 h: change from baseline in systolic blood pressure
Experimental: Compounds of the invention were evaluated for blood pressure reduction efficacy using the following canine telemetry protocol described below.
Male beagle dogs (approximately 1-3 years old) with a body weight of between 10 and 16 kg were surgically implanted with DSI radiotelemetry devices (model: TL11M2-D70-PCT). Briefly, under an inhalant anesthesia, isoflurane/oxygen mixture (1-3.5%/to effect), the body of the telemetry device was positioned and secured intra-abdominally. Subsequently, the arterial catheter of the telemetry device was passed subcutaneously to the inguinal area and introduced into the femoral artery and advanced to the level of the descending aorta. The catheter was secured with 2-0 silk ligatures. The muscle and underlying fascia was closed over the catheter using absorbable suture and the skin was closed using non-absorbable suture. The animals were allowed a minimum recovery period of 2 weeks between surgery and the evaluation of test compounds.
Compound evaluation consisted of a 3 day paradigm at a 3 mg/kg dose. On the first day, no compounds were administered during a 24 hour period of baseline data collection. Blood pressure and heart rate data were collected continuously for one minute periods at 10 minute intervals. On the days of compound administration half the animals received test article with the other half receiving the vehicle used for compound formulation. All test materials were administered by oral gavage in a volume of 1 mL/kg. Data are expressed either as raw values (mm Hg or beats per minute) or as the change from baseline (average value for about 12 hours in low activity period prior to dosing). Change is SBP (systolic blood pressure) and PP (pulse pressure) over time is shown below: […]

Row | Compound | ΔPP (mm Hg) 1-6 h | ΔPP (mm Hg) 6-12 h | ΔPP (mm Hg) 12-18 h | ΔSBP (mm Hg) 1-6 h | ΔSBP (mm Hg) 6-12 h | ΔSBP (mm Hg) 12-18 h
1 | CCN(/[N+]([O-])=N/O[C@@H]1CC[C@@H](C(=O)O)C1)C(C)(C)C [Example 1, (1R,3R)-3-({[(1Z)-2-tert-butyl-2-ethyl-1-oxido-1λ^5-diazan-1-ylidene]amino}oxy)cyclopentanecarboxylic acid] | −7 mm Hg | −7 mm Hg | −5 mm Hg | −12 mm Hg | −9 mm Hg | −7 mm Hg
2 | CCCN(/[N+]([O-])=N/O[C@@H]1CC[C@@H](C(=O)O)C1)C(C)(C)C [Example 7, (1R,3R)-3-({[(1Z)-2-tert-butyl-2-propyl-1-oxido-1λ^5-diazan-1-ylidene]amino}oxy)cyclopentanecarboxylic acid] | −4 mm Hg | −9 mm Hg | −8 mm Hg | −9 mm Hg | −11 mm Hg | −10 mm Hg
3 | CCN(/[N+]([O-])=N/O[C@@H]1CC[C@H](C(=O)O)C1)C(C)(C)C [Example 18, (1S,3R)-3-({[(1Z)-2-tert-butyl-2-ethyl-1-oxido-1λ^5-diazan-1-ylidene]amino}oxy)cyclopentanecarboxylic acid] | −14 mm Hg | −10 mm Hg | −6 mm Hg | −18 mm Hg | −10 mm Hg | −4 mm Hg
